Tests used:
AGS = assay: alamarBlue cell viability (survival rate, IC50), AGS; type: cell-based; settings: AGS (gastric cancer)
Description: (§1) A p-value < 0.05 was considered statistically significant.

SNU201 = assay: alamarBlue cell viability (survival rate), SNU201; type: cell-based; settings: SNU201 (glioblastoma), compound 10 µM, 48 hours
Description: as §1

MiaPaCa-2 = assay: alamarBlue cell viability (survival rate), MiaPaCa-2; type: cell-based; settings: MiaPaCa-2 (pancreatic cancer), compound 10 µM, 48 hours
Description: as §1

23132/87 cells = assay: Apoptosis, Annexin V-FITC/PI staining, flow cytometry, 23132/87; type: cell-based; settings: for Apoptosis distribution (%), Q2: Annexin V-FITC+/PI+ (late apoptosis and cell death); for Apoptosis distribution (%), Q3: Annexin V-FITC+/PI- (early apoptosis); for Apoptosis distribution (%), Q4: Annexin V-FITC-/PI- (healthy population)
Description: 23132/87 and SW48 cells were seeded at densities of 5 × 10^5 and 7 × 10^5 cells/well in a 6-well plate and cultured for 24 hours. […] After treatment, cells were harvested and stained using the Annexin V-FITC Early Apoptosis Detection Kit (6592, Cell Signaling Technology, USA). Flow cytometry (BD FACSVerse Cell Analyzer and FlowJo software, BD Biosciences, USA) was applied to analyze the samples based on 10,000 events.
Student's t-test was performed for statistical analysis between the 2 concentrations of the same compound.

[1] = mouse, in vivo, ip, 10 mg/kg
Description: Female BALB/c/nu/nu mice (5 weeks old) were used in the in vivo model.
As shown in the schematic diagram of Figure 16a, 23132/87 and SW48 cells were injected subcutaneously into mice at densities of 5 × 10^6 cells/mouse and 3 × 10^6 cells/mouse, respectively. […] Tumor volume and body weight were measured twice weekly. On day 27, mice were sacrificed, and major organs (liver, spleen, kidney) and tumor tissue were collected and stored for further analysis. Tumor volume was calculated using the following formula: Volume (mm^3) = (Length) × (Width)^2 × 1/2.

[2] = test system: various cancer cell lines; assay: alamarBlue cell viability, statements across the cell line panel
Description: AGS, SW48, HepG2, and MiaPaCa-2 was purchased from ATCC (American Type Culture Collection, USA), SNU cell lines from the Korean Cell Line Bank (KCLB, Korea), and 23132/87 from the Leibniz Institute DSMZ - German Collection of Microorganisms and Cell Cultures GmbH (DSMZ, Germany). All cell lines were cultured in RPMI-1640 medium (HyClone, USA) supplemented with 10% FBS (Gibco, USA) and 1% penicillin-streptomycin (HyClone, USA) under conditions of 5% CO2, 37°C.
Cells were seeded at a density of 5 × 10^3cells/well in a 96-well plate for 24 hours, then treated with the compound at an appropriate concentration (10 µM) for 48 hours. After treatment, alamarBlue reagent was added at a volume ratio of 1/10 of the treatment volume and incubated for 4 hours in a 37°C cell incubator (protected from direct light). Cell viability was then determined by measuring absorbance values at 570 nm and 600 nm using a microplate reader. The anticancer effects of candidate compounds were evaluated by assessing the cell viability (%) of cells treated at specific concentrations and the half-maximal inhibitory concentration (IC50) of each natural product. Doxorubicin and oxaliplatin were used as positive controls for gastric and colorectal cancer, respectively.
Statistical analysis was performed using R software (version 4.2.2) (R Core Team). Differences between groups were assessed using student's t-test or 1-way ANOVA followed by post-hoc Tukey HSD test. A p-value < 0.05 was considered statistically significant.
Further, to measure the IC50 values against six cancer cell lines.

C=CCc1cc(OC)c(O[C@H](C)[C@H](c2ccc(O)c(OC)c2)c2ccc(O)c(C(=O)CCCCCCCCc3ccc(O)cc3)c2O)c(OC)c1 [Compound 3, Myricone C]
Cancer cell line survival rate (%) (AGS; compound 10 µM, 48 hours): 0.16%
IC50 (AGS; Homo sapiens, 2.5-40 µM, positive control = doxorubicin): 3.62 µM
Cancer cell line survival rate (%) (SNU201): 1.17%
Cancer cell line survival rate (%) (MiaPaCa-2): 2.53%
Apoptosis distribution (%), Q2 (23132/87 cells; 23132/87, 5 µM, 20 hours): 9.35%
Apoptosis distribution (%), Q3 (23132/87 cells; 23132/87, 5 µM, 20 hours): 5.76%
Apoptosis distribution (%), Q4 (23132/87 cells; 23132/87, 5 µM, 20 hours): 81.57%
Apoptosis distribution (%), Q2 (23132/87 cells; 23132/87, 10 µM, 20 hours): 10.47%
Apoptosis distribution (%), Q3 (23132/87 cells; 23132/87, 10 µM, 20 hours): 10.97%
Apoptosis distribution (%), Q4 (23132/87 cells; 23132/87, 10 µM, 20 hours): 75.00%
Q3 population (23132/87 cells; 23132/87, 5 µM): 5.76% ± 0.35%
Apoptosis distribution (%), Q1 (23132/87 cells; 23132/87, 5 µM, 20 hours): 3.30%
Q3 ratio compared with DMSO control (23132/87 cells; 23132/87, 5 µM, 20 hours): significantly increased
Q3 population (23132/87 cells; 23132/87, 10 µM): 10.97% ± 0.12%
Q4 distribution reduction compared to the control group (23132/87 cells; 23132/87, 10 µM): 8.27%
Apoptosis distribution (%), Q1 (23132/87 cells; 23132/87, 10 µM, 20 hours): 3.59%
Q2 ratio increase compared with DMSO control (23132/87 cells; 23132/87, 10 µM, 20 hours): about 2%
Q3 ratio increase compared with DMSO control (23132/87 cells; 23132/87, 10 µM, 20 hours): ~6%
Q2 and Q3 with increasing concentrations (23132/87 cells; 23132/87, 5 to 10 µM): significantly increased
body weight and the weights of major organs (liver, spleen, kidneys) [1]: remained stable
anticancer activity (comparison of IC50 values among compounds) ([2]; six cancer cell lines, 2.5-40 µM): strongest anticancer activity
anticancer activity ([2]; various cancer cell lines): high anticancer activity

Reference: patent EP4790046A1, “NOVEL COMPOUND DERIVED FROM MYRISTICA FRAGRANS, AND ANTICANCER COMPOSITION COMPRISING SAME” (Korea Institute of Science and Technology, priority 2023, dated 2025)
